As a reminder, the EC50 is the concentration needed to bring the measured effect to its halfway point.

One experiment relates to HCV 1b genotype replicon. As to the kind of experiment: HCV replicon drug screening assay (quantitative RT-PCR or luciferase), genotype 1b. Type of experiment: cell-based. As to conditions: Hepatitis C virus, read-out: Genotype-1b replicon EC50 Range. From the text:
HCV replicon cell lines (kindly provided by R. Bartenschlager) isolated from colonies as described by Lohman et. al. (Lohman et al. (1999) Science 285: 110-113, expressly incorporated by reference in its entirety) and used for all experiments. The HCV replicon has the nucleic acid sequence set forth in EMBL Accession No.: AJ242651, the coding sequence of which is from nucleotides 1801 to 8406.
The coding sequence of the published HCV replicon was synthesized and subsequently assembled in a modified plasmid pBR322 (Promega, Madison, Wis.) using standard molecular biology techniques. One replicon cell line (“SGR 11-7”) stably expresses HCV replicon RNA which consists of (i) the HCV 5′UTR fused to the first 12 amino acids of the capsid protein, (ii) the neomycin phosphotransferase gene (neo), (iii) the IRES from encephalomyocarditis virus (EMCV), and (iv) HCV NS2 to NS5B genes and the HCV 3′UTR. Another replicon cell line (“Huh-luc/neo-ET”) described by Vrolijk et. al. (Vrolijk et. al. (2003) Journal of Virological Methods 110:201-209, expressly incorporated by reference in its entirety) stably expresses HCV replicon RNA which consists of (i) the HCV 5′UTR fused to the first 12 amino acids of the capsid protein, (ii) the firefly luciferase reporter gene, (iii) the ubiquitin gene, (iv) the neomycin phosphotransferase gene (neo), (v) the IRES from encephalomyocarditis virus (EMCV), and (vi) HCV NS3 to NS5B genes that harbor cell culture adaptive mutations (E1202G, T12801, K1846T) and the HCV 3′UTR.
These cell lines are maintained at 37° C., 5% CO2, 100% relative humidity in DMEM (Cat#11965-084, Invitrogen), with 10% fetal calf serum (“FCS”, Invitrogen), 1% non-essential amino acids (Invitrogen), 1% of Glutamax (Invitrogen), 1% of 100× penicillin/streptomycin (Cat#15140-122, Invitrogen) and Geneticin (Cat#10131-027, Invitrogen) at 0.75 mg/ml or 0.5 mg/ml for 11-7 and Huh-luc/neo-ET cells, respectively.
EC50 values of single agent compounds and combinations were determined by HCV RNA detection using quantitative RT-PCR, according to the manufacturer's instructions, with a TAQMAN® One-Step RT-PCR Master Mix Reagents Kit (Cat#AB 4309169, Applied Biosystems) on an ABI Model 7500 thermocycler. The TaqMan primers to use for detecting and quantifying HCV RNA are 5′-GCTGCGGCCTGTCGAGCT-3′ (SEQ ID NO: 1), 5′-CAAGGTCGTCTCCGCATAC-3′ (SEQ ID NO: 2) and the probe 5′-FAM-[…]-BHQ-3′ (SEQ ID NO: 3) obtained from Integrated DNA Technologies. HCV RNA is normalized to GAPDH RNA levels in drug-treated cells, which is detected and quantified using the Human GAPDH Endogenous Control Mix (Applied Biosystems, AB 4310884E). Total cellular RNA is purified from 96-well plates using the RNAqueous 96 kit (Ambion, Cat#AM1812). Chemical agent cytotoxicity was evaluated using an MTS assay according to the manufacturer's directions (Promega).
The compounds described herein can be effective against the HCV 1b genotype. It should also be understood that the compounds can inhibit multiple genotypes of HCV. In one embodiment, compounds of Formula (I) are active against the 1a, 1b, 2a, 2b, 3a, 4a, and 5a genotypes. […] The EC50 ranges were classified into the following groups: A>10 nM; B 1-10 nM; C<1 nM. The potential cytotoxicities of each agent were analyzed in parallel by MTS assay and are greater than 3 uM for all agents.
On the technique in general: Replicon systems follow genome replication, usually without infectious particles.
With `COC(=O)N[C@@H](C(=O)N1CCC[C@H]1c1ncc(C(=O)Nc2ccc(NC(=O)c3cnc([C@@H]4CCCN4C(=O)[C@H](NC(=O)OC)c4ccccc4)[nH]3)cc2)[nH]1)c1ccccc1` [Compound 121], the EC50 lay in the range of 1 to 10 nM.

The experiment is the same for the next values; noted with them: Hepatitis C virus; HCV 1b genotype replicon; quantitative RT-PCR or luciferase assay; read-out: Genotype-1b replicon EC50 Range.
As for `COC(=O)N[C@H](C(=O)N1CCC[C@H]1c1nc(-c2ccc(OCc3ccc4[nH]c([C@@H]5CCCN5C(=O)[C@@H](NC(=O)OC)C(C)C)nc4c3)cc2)c[nH]1)C(C)C` [Compound 44], the EC50 was under 1 nM.

For `COC(=O)N[C@@H](C(=O)N1CCC[C@H]1c1ncc(-c2ccc(-c3ccc4[nH]c([C@@H]5CCCN5C(=O)[C@H](NC(=O)OC)c5ccccc5)nc4c3)cc2)[nH]1)c1ccccc1` [Compound 35], the half-maximal effective concentration (EC50) was under 1 nM.

For the compound `COC(=O)N[C@@H](C(=O)N1CCC[C@H]1c1nc2cc(-c3ccc(-c4cnc5[nH]c([C@@H]6CCCN6C(=O)[C@H](NC(=O)OC)c6ccccc6)nc5c4)cc3)cnc2[nH]1)c1ccccc1` [Compound 112], the EC50 was under 1 nM.

Take `COC(=O)N[C@H](C(=O)N1CCC[C@H]1c1ncc(-c2ccc(C#Cc3ccc4nc([C@@H]5CCCN5C(=O)[C@@H](NC(=O)OC)C(C)(C)O)[nH]c4c3)cc2)[nH]1)C(C)C` [Compound 100]: the EC50 was under 1 nM.

Consider `O=C(Cc1ccccn1)N1CCC[C@H]1c1nc2cc(-c3ccc(-c4ccc5[nH]c([C@@H]6CCCN6C(=O)Cc6ccccn6)nc5c4)cc3)ccc2[nH]1` [Compound 22], for which the half-maximal effective concentration (EC50) was under 1 nM.

Take `COC(=O)N[C@@H](C(=O)N1CCC[C@H]1c1nc(-c2ccc(CCc3ccc4[nH]c([C@@H]5CCCN5C(=O)[C@H](NC(=O)OC)c5ccccc5)nc4c3)cc2)n[nH]1)c1ccccc1` [Compound 40]: the EC50 is under 1 nM.

As for `COC(=O)N[C@H](C(=O)N1CCC[C@H]1c1nc(-c2ccc(/C=C/c3ccc4[nH]c([C@@H]5CCCN5C(=O)[C@@H](NC(=O)OC)C(C)C)nc4c3)cc2)c[nH]1)C(C)C` [Compound 69], the 50% effective concentration (EC50) was under 1 nM.

For the compound `COC(=O)N[C@@H](C(=O)N1CCC[C@H]1c1nc2cc(CC=Cc3ccc4nc([C@@H]5CCCN5C(=O)[C@H](NC(=O)OC)c5ccccc5)[nH]c4c3)ccc2[nH]1)c1ccccc1` [Compound 30], the EC50 is under 1 nM.

Regarding `CCC(NC(=O)OC)(C(=O)N1CCC[C@H]1c1nc2ccc(C#Cc3ccc(-c4cnc([C@@H]5CCCN5C(=O)[C@@H](NC(=O)OC)C(C)C)[nH]4)cc3)cc2[nH]1)c1ccccc1` (stereo partly shown) [Compound 102], the EC50 was under 1 nM.

`COC(=O)N[C@H](C(=O)N1CCC[C@H]1c1nc2cc(C#Cc3ccc(-c4c[nH]c([C@@H]5CCCN5C(=O)[C@@H](NC(C)=O)C(C)C)n4)cc3)ccc2[nH]1)C(C)C` [Compound 86]: the EC50 was under 1 nM.

Turning to `COC(=O)N[C@H](C(=O)N1CCC[C@H]1c1ncc(-c2ccc([C@H]3C[C@@H]3c3ccc4nc([C@@H]5CCCN5C(=O)[C@@H](NC(=O)OC)C(C)C)[nH]c4c3)cc2)[nH]1)C(C)C` [Compound 72], the EC50 was under 1 nM.

As for `COC(=O)N[C@H](C(=O)N1CCC[C@H]1c1nc(C#Cc2ccc(-c3ccc4[nH]c([C@@H]5CCCN5C(=O)[C@@H](NC(=O)OC)C(C)C)nc4c3)cc2)c[nH]1)C(C)C` [Compound 55], the EC50 is under 1 nM.

As for `COC(=O)N[C@H](C(=O)N1CCC[C@H]1c1nc(-c2ccc(C#Cc3ccc4[nH]c([C@@H]5CCCN5C(=O)[C@@H](OC(=O)OC)C(C)C)nc4c3)cc2)c[nH]1)C(C)C` [Compound 62], the EC50 is under 1 nM.

Turning to `COC(=O)N[C@H](C(=O)N1CCC[C@H]1c1ncc(-c2ccc(C#Cc3ccc4nc([C@@H]5C6CCC(CC6)N5C(=O)[C@@H](NC(=O)OC)C(C)C)[nH]c4c3)cc2)[nH]1)C(C)C` [Compound 125], the EC50 is under 1 nM.

Regarding `COC(=O)N[C@H](C(=O)N1CCC[C@H]1c1ncc(-c2ccc(C#Cc3ccc4nc([C@@H]5C[C@@H](F)CN5C(=O)[C@@H](NC(=O)OC)C(C)C)[nH]c4c3)cc2)[nH]1)C(C)C` [Compound 106], the EC50 was under 1 nM.

For `COC(=O)N[C@H](C(=O)N1CCC[C@H]1c1ncc(-c2ccc(C#Cc3cc4[nH]c([C@@H]5CCCN5C(=O)[C@@H](NC(=O)OC)C(C)C)nc4cc3OC)cc2)[nH]1)C(C)C` [Compound 110], the EC50 is under 1 nM.

Regarding `COC(=O)N[C@H](C(=O)N1CCC[C@H]1c1ncc(-c2ccc(C#Cc3ccc4nc([C@@H]5CCCN5C(=O)[C@@H](NC(=O)OC)C5CC5)[nH]c4c3)cc2)[nH]1)C(C)C` [Compound 98], the EC50 is under 1 nM.

Consider `COC(=O)N[C@@H](C(=O)N1CCC[C@H]1c1nc(-c2ccc(/C=C/c3ccc4[nH]c([C@@H]5CCCN5C(=O)[C@H](NC(=O)OC)c5ccccc5)nc4c3)cc2)c[nH]1)c1ccccc1` [Compound 38], for which the EC50 was under 1 nM.

`COC(=O)N[C@H](C(=O)N1CCC[C@H]1c1nc2cc(C#Cc3ccc(-c4c[nH]c([C@@H]5CCCN5C(=O)[C@H](NC(=O)OC)C(C)C)n4)cc3)ccc2[nH]1)C(C)C` [Compound 88]: the EC50 is under 1 nM.

For the compound `COC(=O)N[C@H](C(=O)N1CCC[C@H]1c1nc(-c2ccc(/C=C/c3ccc4[nH]c([C@@H]5CCCN5C(=O)[C@@H](NC(=O)OC)C(C)C)nc4c3)s2)c[nH]1)C(C)C` [Compound 45], the EC50 was under 1 nM.

As for `COC(=O)N[C@H](C(=O)N1C[C@H](O)C[C@H]1c1ncc(-c2ccc(C#Cc3ccc4nc([C@@H]5CCCN5C(=O)[C@@H](NC(=O)OC)C(C)C)[nH]c4c3)cc2)[nH]1)C(C)C` [Compound 105], the EC50 is under 1 nM.

Take `COC(=O)N[C@H](C(=O)N1CCC[C@H]1c1nc(-c2ccc(C#Cc3ccc4[nH]c([C@@H]5CCCN5C(=O)[C@@H](NC(=O)OC)[C@@H](C)OC)nc4c3)cc2)c[nH]1)[C@@H](C)OC` [Compound 59]: the EC50 is under 1 nM.

In the case of `COC(=O)N[C@H](C(=O)N1CCC[C@H]1c1nc(-c2ccc(C#Cc3ccc4[nH]c([C@@H]5CCCN5C(=O)[C@@H](c5ccccc5)C(C)C)nc4c3)cc2)c[nH]1)C(C)C` [Compound 82], the half-maximal effective concentration (EC50) is under 1 nM.

Turning to `COC(=O)N[C@H](C(=O)N1CCC[C@H]1c1nc(-c2ccc(C#Cc3ccc4[nH]c([C@@H]5CC(F)(F)CN5C(=O)[C@@H](NC(=O)OC)C(C)C)nc4c3)cc2)c[nH]1)C(C)C` [Compound 92], the EC50 is under 1 nM.

With `COC(=O)N[C@H](C(=O)N1CCC[C@H]1c1nc(CCc2ccc(-c3ccc4[nH]c([C@@H]5CCCN5C(=O)[C@@H](NC(=O)OC)C(C)C)nc4c3)cc2)c[nH]1)C(C)C` [Compound 56], the EC50 is under 1 nM.

On to `COC(=O)N[C@@H](C(=O)N1CCC[C@H]1c1cc(-c2ccc(C#Cc3ccc4[nH]c([C@@H]5CCCN5C(=O)[C@H](NC(=O)OC)c5ccccc5)nc4c3)cc2)n[nH]1)c1ccccc1` [Compound 41], for which the EC50 was under 1 nM.

Consider `COC(=O)N[C@H](C(=O)N1CCC[C@H]1c1ncc(-c2ccc(C#Cc3ccc4nc([C@@H]5CCCN5C(=O)[C@@H](NC(=O)OC)[C@@H](C)O)[nH]c4c3)cc2)[nH]1)[C@@H](C)O` [Compound 97], for which the half-maximal effective concentration (EC50) was under 1 nM.

With `[2H]c1c([2H])c(-c2c[nH]c([C@@H]3CCCN3C(=O)[C@@H](NC(=O)OC)C(C)C)n2)c([2H])c([2H])c1C#Cc1ccc2[nH]c([C@@H]3CCCN3C(=O)[C@@H](NC(=O)OC)C(C)C)nc2c1` [Compound 67], the half-maximal effective concentration (EC50) is under 1 nM.

As for `COC(=O)N[C@H](C(=O)N1CCC[C@H]1c1nc2cc(-c3ccc4cc(-c5c[nH]c([C@@H]6CCCN6C(=O)[C@@H](NC(=O)OC)[C@@H](C)OC)n5)ccc4c3)ccc2[nH]1)[C@@H](C)O` [Compound 53], the EC50 was under 1 nM.

Consider `COC(=O)N[C@H](C(=O)N1CCC[C@H]1c1nc(-c2ccc(C#Cc3ccc4[nH]c([C@@H]5CCCN5C(=O)[C@@H](NC(=O)OC)C(C)C)nc4c3)cc2)c[nH]1)c1ccccc1` [Compound 89], for which the EC50 was under 1 nM.

The values are drawn from patent US9060971B2, “Combination pharmaceutical agents as inhibitors of HCV replication” (Enanta Pharmaceuticals, Inc., priority 2010, dated 2015).
